According to US11273161B2, “Methods of treating autism spectrum disorders” (The Broad Institute, Inc., priority 2016, dated 2022):

Columns and labels:
[1] = target: T1, ADSS (Mus musculus, UniProt P46664); experiment: Dose-response of IMP levels in cell lysates of DIV21 neurons from WT mice; format: cell-based; details: FIG. 20
T1 construct: endogenous in cells; host or cells: primary mouse neurons, DIV21 (WT in A3; WT and Kctd13Δ47 in A4)
Procedure: FIGS. 20A-B show IMP levels in cell lysates of DIV21 neurons from WT mice following treatment with D, L-alanosine or L-alanosine, or untreated (U).
16p11.2 deletion patient fibroblast samples were acquired from the Simons Foundation VIP collection. For comparison, fibroblasts from unaffected individuals were obtained from Mclean Hospital collection of primary fibroblasts (Cohen, Ongur, McPhee). Fibroblasts were grown in DMEM supplemented with 10% serum (Gibco). For metabolic experiments, 160,000 cells/well were plated in DMEM (Gibco) supplemented with 10% fetal bovine serum (Gibco) in 12 well plates. […]
Next, metabolic changes were determined between 16p11.2 deletion patient fibroblasts compared with control fibroblasts. […]
(§1) Raw data were processed using MultiQuant 1.2 software (AB SCIEX) for automated LC-MS peak integration. […] Internal standard peak areas were monitored for quality control, to assess system performance over time, and to identify any outlier samples requiring re-analysis. A pooled plasma reference sample was also analyzed after sets of 20 study samples as an additional quality control measure of analytical performance and to serve as reference for scaling raw LC-MS peak areas across sample batches. […]
Next, purine metabolites were assessed in cell lysates and supernatants of cultured neurons from wild-type and kctd13Δ47 mice. […]

[2] = target: T2, ADSS (Homo sapiens, UniProt P30520); experiment: LC-MS purine metabolite levels in human control fibroblast cell lysates after ADSS inhibition; format: cell-based; details: human control fibroblasts, 12 hours, 10 mg/mL, FIG. 19
T2 construct: fibroblasts from unaffected individuals were obtained from Mclean Hospital collection of primary fibroblasts; endogenous in cells; host or cells: primary human control fibroblasts (McLean Hospital collection)
T2 sequence (P30520 whole entry): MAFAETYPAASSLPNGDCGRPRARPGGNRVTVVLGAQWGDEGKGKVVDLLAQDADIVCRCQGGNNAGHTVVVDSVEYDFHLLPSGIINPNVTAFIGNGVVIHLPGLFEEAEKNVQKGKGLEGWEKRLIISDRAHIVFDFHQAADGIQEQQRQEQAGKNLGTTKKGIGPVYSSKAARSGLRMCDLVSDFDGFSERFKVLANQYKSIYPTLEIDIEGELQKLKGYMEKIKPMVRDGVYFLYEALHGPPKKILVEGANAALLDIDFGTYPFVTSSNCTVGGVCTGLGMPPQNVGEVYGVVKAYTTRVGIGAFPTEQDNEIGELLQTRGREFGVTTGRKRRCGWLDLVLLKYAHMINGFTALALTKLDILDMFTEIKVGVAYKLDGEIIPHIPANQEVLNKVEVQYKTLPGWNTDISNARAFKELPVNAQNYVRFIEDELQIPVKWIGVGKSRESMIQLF
Procedure: (§2) 16p11.2 deletion patient fibroblast samples were acquired from the Simons Foundation VIP collection. For comparison, fibroblasts from unaffected individuals were obtained from Mclean Hospital collection of primary fibroblasts (Cohen, Ongur, McPhee). Fibroblasts were grown in DMEM supplemented with 10% serum (Gibco). For metabolic experiments, 160,000 cells/well were plated in DMEM (Gibco) supplemented with 10% fetal bovine serum (Gibco) in 12 well plates. For neurons, 1 million primary mouse neurons/well were plated in 6 well plates and were extracted similar to fibroblasts as described below except volumes were doubled to accommodate the extra surface area.
Next, metabolic changes were determined between 16p11.2 deletion patient fibroblasts compared with control fibroblasts. For metabolite extraction, samples were collected from either cells or the cell media. Cell samples were extracted from cells grown in 12 well plates. Cell samples were extracted by washing cells once with 1 mL ice-cold PBS, transferring to dry ice, followed by adding 400 μL of 80% methanol (VWR) containing the internal standards inosine-^15N4, thymine-d4, and glycocholate-d4 (Cambridge Isotope Laboratories). Cells were then incubated for 15 minutes at −80° C., followed by scraping and transfer of the methanol and cells to a 1.5 mL tube. Cells were centrifuged (10 min, 9,000 g, 4° C.), and the supernatant was transferred to a new 1.5 mL tube. The pellet was extracted again with 50 μL of 80% methanol containing internal standards and centrifuged. The supernatant was then pooled with the previously collected methanol sample. Media supernatant samples (30 μL) were extracted using 120 μL of 80% methanol (VWR) containing the internal standards inosine-^15N4, thymine-d4, and glycocholate-d4 (Cambridge Isotope Laboratories). The samples were centrifuged (10 min, 9,000 g, 4° C.). The resulting supernatant was transferred to a new tube. Samples were stored at −80° C. until analysis.
A method using basic hydrophilic interaction chromatography (HILIC) separation and negative ionization mode MS detection was established on an LC-MS system consisting of an ACQUITY UPLC (Waters Inc.) coupled to a 5500 QTRAP triple quadrupole mass spectrometer (AB SCIEX). […]
as §1

[3] = target: T1, ADSS; experiment: S-Ado levels in cultured neurons from kctd13Δ47 mice contacted with L-alanosine; format: cell-based; details: increasing concentrations (0, 0.01, 0.1 μM), FIG. 22
Procedure: as §2
Next, metabolic changes were determined between 16p11.2 deletion patient fibroblasts compared with control fibroblasts. For metabolite extraction, samples were collected from either cells or the cell media. […]
as §1

[4] = test system: ADSS; experiment: Western blot of ADSS protein levels in neurons after proteasome or Cullin inhibition; format: cell-based, mouse; details: neurons from Kctd13Δ47 mice, treated 5 hours with 2 μM, FIG. 5
Source text: Protein lysates were generated from mouse neurons prepared from wildtype or Kctd13Δ47 mice. C57B6 timed pregnant females were euthanized following IACUC approved method. E18 embryos were collected and rapidly decapitated. Embryos were then washed in dissection media (Hibernate-E (Hib-E, Gibco) supplemented with 100 U/mL penicillin streptomycin (Pen/Strep, Gibco)). Brains were isolated, cortices were separated from the midbrain and meninges was removed from each cortex. Each cortex was cut into six pieces; five cortices were pooled for dissociation. To dissociate 5 cortices, one Papain kit (Worthington LK3176) was reconstituted in 5 mLs Hib-E and activated at 37° C. for 10 minutes. Following activation, DNAse I (Sigma) was added to a concentration of 10 μg/mL and filter sterilized using a 0.22 μm filter. Cortices were washed twice with 5 mLs of Hib-E and 5 mLs of activated papain/DNAseI was added to the cortices and incubated for 8 minutes at 37° C. Following digestion, cortices were washed three times with 10 ml Hib-E per wash. Cortices were then triturated 10-15 times with a P1000 pipette in 1 mL NBActive4 supplemented with 10 μg/mL DNAseI filter sterilized using a 0.22 μm filter. […] Cells were counted in a hemocytometer, diluted and plated at 1 million cells/well in a 6 well poly-D-lysine (Corning, Biocoat) or 6 million cells/10 cm poly-D-lysine plate (Corning, Biocoat). […]

T1 sequence (P46664 whole entry): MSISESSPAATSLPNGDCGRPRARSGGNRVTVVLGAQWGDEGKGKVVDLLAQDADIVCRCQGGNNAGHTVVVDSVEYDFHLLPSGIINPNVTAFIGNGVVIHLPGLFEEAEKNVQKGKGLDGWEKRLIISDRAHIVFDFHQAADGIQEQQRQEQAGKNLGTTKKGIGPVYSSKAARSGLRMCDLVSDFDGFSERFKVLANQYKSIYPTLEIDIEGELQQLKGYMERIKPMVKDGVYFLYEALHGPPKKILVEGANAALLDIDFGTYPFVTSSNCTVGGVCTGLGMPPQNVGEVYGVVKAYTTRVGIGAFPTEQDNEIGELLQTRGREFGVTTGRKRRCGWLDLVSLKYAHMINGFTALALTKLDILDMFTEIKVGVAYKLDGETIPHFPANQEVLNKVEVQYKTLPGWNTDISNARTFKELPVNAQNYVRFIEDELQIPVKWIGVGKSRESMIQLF

NC(CN(O)N=O)C(=O)O (racemic) [D,L-alanosine, 3-(Hydroxynitrosoamino)-D,L-alanine]
IMP levels [1]: dose-dependent increase

N[C@@H](CN(O)N=O)C(=O)O [L-alanosine, L-2-amino-3-(N-hydroxy-N-nitrosamino) propionic acid]
levels of ADP [2]: decreased
levels of AMP [2]: decreased
levels of IMP [2]: increased
levels of aminoimidazole carboxamide ribotide (AICAR) ([2]; metabolite upstream of ADSS): not affected
IMP levels [1]: dose-dependent increase
S-Ado levels [3]: decreased

NS(=O)(=O)OC[C@@H]1C[C@@H](n2ccc3c(N[C@H]4CCc5ccccc54)ncnc32)C[C@@H]1O [MLN4924]
change in ADSS levels [4]: no change

CC(C)C[C@H](NC(=O)[C@H](Cc1ccccc1)NC(=O)c1cnccn1)B(O)O [bortezomib]
change in ADSS levels [4]: no change
